Results on one molecule are retold here after US10933057B2 (priority 2017, dated 2021).

This experiment deals with patients. The arrangement: species or system human. The note with it: in vivo.

Structures are written as SMILES.

Take `CCCCC(C)(O)C/C=C/[C@H]1[C@H](O)CC(=O)[C@@H]1CCCCCCC(=O)OC` (mixture of isomers) [Misoprostol]: the “Pain (No pain −, Pain +)” value was “+”.
